One data set deals with bronchi. The conditions noted are these: in vivo; cited from earlier work.
Data set [1] relates to passive cutaneous anaphylaxis (PCA) reaction. As to the kind of experiment: passive cutaneous anaphylaxis (PCA) test, i.v. or oral administration. The conditions noted are these: for inhibition in vivo at 0.003 mg/kg / inhibition in vivo at 0.01 mg/kg / inhibition in vivo at 0.03 mg/kg / inhibition in vivo at 0.1 mg/kg / inhibition in vivo at 0.3 mg/kg / inhibition in vivo at 1 mg/kg / inhibition in vivo at 3 mg/kg / inhibition in vivo at 10 mg/kg / inhibition in vivo at 30 mg/kg / inhibition in vivo at 100 mg/kg: read-out: degree (%) of protection, PCA test. In kind it is in vivo, male Charles River Wistar rats. On the procedure:
In the PCA test, normal animals are injected intradermally (i.d.) with antibodies contained in serum obtained from actively sensitized animals. The animals are then challenged intravenously with antigen mixed with a dye such as Evans' Blue. The increased capillary-permeability caused by the antigen-antibody reaction causes the dye to leak from the site of the antibody injection. The test animals are then asphyxiated and the intensity of the reaction determined by measuring the diameter and intensity of the blue coloration on the inner surface of the animals skin. […] The ability of agents to interfere with PCA reactions is measured in male Charles River Wistar rats, 170-210 g. […] Hyperimmune antisera to hen egg albumin is prepared according to Orange, et al., J. Exptl. […] Forty-eight hours prior to antigen challenge the reaginic antisera is injected intradermally (i.d.) into the shaved skin of a normal rat's back; 5 hours before challenge the hyperimmune antisera is similarly injected; 5 hours later, at a third site, 60 mcg. histamine dihydrochloride is injected i.d. as a check for antihistaminic and unspecific types of blockage; the compounds of the instant invention or saline are then administered i.v. and immediately followed by 2.5 mg. Evan's blue dye and 5 mg. egg albumin in saline. In the case of oral administration Evan's blue dye and egg albumen are given five minutes after administration of the drug. Thirty minutes later the animals are asphyxiated using chloroform and the skin of the back removed and reversed for observation. A score is assigned each injection site equal to the product of the diameter of the site in mm. and a grade of 0.1, 0.5, 1, 2, 3 or 4 proportional to intensity of dye coloration. The scores for a given injection site are summed for each group of 8 animals and compared to the saline treated controls. The difference is expressed as percent blockade due to the compound employed. […] Disodium cromoglycate, a commerial antiallergy agent, is included for comparison. [drawing 3]

Data set [2] in a line: hypotension and bradycardia in dogs. In kind it is in vivo.
Data set [3] in a line: intravenous toxicity in mice.
A further data set deals with PCA reaction. Kind of data set: PCA reaction test after aerosol administration (nebulizer). In kind it is in vivo, rats.
In the next data set the test system is bronchial asthma. The conditions noted are these: in vivo; cited from earlier work.
[4] abbreviates: Rattus norvegicus, iv, I.V., 0.03 mg/kg.

Read-outs that look alike come from different tables or passages of the source.

In the case of `CC(C)(C)NCC(O)c1ccc(O)c(CO)c1` (stereo not shown) [solbutamol], the “bronchodilator activity” value in the data set on bronchi was “potent bronchodilator of prolonged duration, and active via both oral and aerosol administration”.

Take `CCOC(=O)c1nc2nc3cc(OC)c(OC)cc3cc2c(=O)[nH]1` [COOC2 H5/H/H/OCH3/OCH3/H, Ethyl 7,8-dimethoxypyrimido[4,5-b]quinolin-4(3H)-one-2-carboxylate]: in data set [1] (Rattus norvegicus, iv, I.V.), the inhibition in vivo at 0.003 mg/kg amounted to 36%, the inhibition in vivo at 0.01 mg/kg turned out to be 70%, the inhibition in vivo at 0.1 mg/kg was found to be 90% and the inhibition in vivo at 0.3 mg/kg worked out at 90%. For the same compound, in data set [1] (Rattus norvegicus, iv, I.V.), the inhibition in vivo at 1 mg/kg amounted to 100%. Further, the inhibition in vivo at 0.03 mg/kg in data set [1] (setting [4]) turned out to be 75%. The minimal effective dose in data set [1] (Rattus norvegicus, iv, read-out: intravenously active at a level as low as) came to 0.003 mg/kg. Further, the inhibition in vivo at 0.03 mg/kg in data set [1] (Rattus norvegicus, Oral, 0.03 mg/kg (so in the source)) was 30%. In data set [1] (Rattus norvegicus, Oral), the inhibition in vivo at 1 mg/kg was determined as 51%, the inhibition in vivo at 3 mg/kg was 75% and the inhibition in vivo at 10 mg/kg stood at 80%. Besides, in data set [1] (rat, in vivo), the “routes of administration by which active” value is “active via the oral, intravenous, intraperitoneal and inhalation routes of administration”. Moreover, in data set [2], the hypotension and bradycardia entry is “marked but transient hypotension and bradycardia”. In data set [3] (intravenous, mice), the “intravenous dose that did not cause death in mice” value was found to be 1000 mg/kg. Besides, the “toxicity” value in data set [3] (mouse, in vivo) was “relatively free of toxicity”. In the data set on PCA reaction, the “concentration of solutions giving concentration related responses by aerosol” value fell in the range of 0.3 to 30 mg/mL.

Take `O=c1[nH]cnc2cc3ccccc3cc12` [Benzo[g]quinazolin-4(3H)-one, reference compound]: in data set [1] (Rattus norvegicus, iv, I.V.), the inhibition in vivo at 3 mg/kg was found to be 31%. Moreover, the “bronchodilator activity” value with bronchi was “active as a bronchodilator”.

As to `O=C(O)c1cc(=O)c2c(OCC(O)COc3cccc4oc(C(=O)O)cc(=O)c34)cccc2o1` [Disodium chromoglycate, 1,3-bis-(2-carboxychromon-5-yloxy)-2-hydroxypropane, reference compound], in data set [1] (Rattus norvegicus, iv, I.V.), the inhibition in vivo at 0.1 mg/kg came out at 19%, the inhibition in vivo at 0.3 mg/kg worked out at 29%, the inhibition in vivo at 1 mg/kg was determined as 56% and the inhibition in vivo at 3 mg/kg worked out at 78%. Also, in data set [1] (Rattus norvegicus, iv, I.V.), the inhibition in vivo at 10 mg/kg was determined as 89%, the inhibition in vivo at 30 mg/kg came to 99% and the inhibition in vivo at 100 mg/kg was found to be 100%. Also, the inhibition in vivo at 100 mg/kg in data set [1] (Rattus norvegicus, Oral) turned out to be 0%. Also, the “efficacy by route of administration” value with bronchial asthma was “lack of oral efficacy”. Moreover, the “bronchodilator activity” value in the data set on bronchi was “not a bronchodilator”.

In the case of `CN[C@@H](C)[C@H](O)c1ccccc1` [ephedrine], the “bronchodilator activity” value in the data set with bronchi is given as “orally efficacious bronchodilator”.

For `CC(C)NCC(O)c1ccc(O)c(O)c1` (stereo not shown) [isoproterenol], the “bronchodilator activity” value in the data set on bronchi is listed as “potent aerosol bronchodilator”.

As for `CCOC(=O)c1nc2nc3cc(OCC)c(OCC)cc3cc2c(=O)[nH]1` [COOC2 H5/H/H/OC2 H5/OC2 H5/H], in data set [1] (Rattus norvegicus, iv, I.V.), the inhibition in vivo at 0.003 mg/kg amounted to 21%, the inhibition in vivo at 0.01 mg/kg came out at 43%, the inhibition in vivo at 0.1 mg/kg was 90% and the inhibition in vivo at 3 mg/kg stood at 100%. Moreover, the inhibition in vivo at 0.03 mg/kg in data set [1] (setting [4]) turned out to be 60%. In addition, in data set [1] (Rattus norvegicus, Oral), the inhibition in vivo at 0.3 mg/kg worked out at 42%, the inhibition in vivo at 1 mg/kg was 40%, the inhibition in vivo at 3 mg/kg amounted to 64% and the inhibition in vivo at 10 mg/kg was 81%.

As for `CCOC(=O)CNC(=O)c1nc2nc3cc(OC)c(OC)cc3cc2c(=O)[nH]1` [N-carbethoxymethyl 7,8-dimethoxypyrimido-[4,5-b]quinolin-4(3H)-one-2-carboxamide], in data set [1] (Rattus norvegicus, iv, I.V.), the inhibition in vivo at 3 mg/kg was 32% and the inhibition in vivo at 30 mg/kg came to 96%.

For `COc1cc2nc3nc(C(=O)O)[nH]c(=O)c3cc2cc1O` [COOH/H/H/OH/OCH3/H, 7-Hydroxy-8-Methoxypyrimido[4,5-b]Quinolin-4(3H)One-2-Carboxylic Acid], in data set [1] (Rattus norvegicus, iv, I.V.), the inhibition in vivo at 0.003 mg/kg came out at 90%, the inhibition in vivo at 0.01 mg/kg was found to be 86% and the inhibition in vivo at 3 mg/kg amounted to 100%.

For `CNC[C@H](O)c1ccc(O)c(O)c1` [epinephrine], the “bronchodilator activity” value with bronchi was “bronchodilator effects”.

Regarding `CCOC(=O)Cc1nc2cc3ccccc3cc2c(=O)[nH]1` [2-carbethoxymethylbenzo[g]quinazolin-4(3H)-one, reference compound], the inhibition in vivo at 3 mg/kg in data set [1] (Rattus norvegicus, iv, I.V.) is 49%.

On to `O=C(O)c1nc2cc3ccccc3cc2c(=O)[nH]1` [COOH/H/H/H/H (Formula II)], for which, in data set [1] (Rattus norvegicus, iv, I.V.), the inhibition in vivo at 1 mg/kg is 14%, the inhibition in vivo at 3 mg/kg turned out to be 36% and the inhibition in vivo at 10 mg/kg came to 100%. Besides, in data set [1] (Rattus norvegicus, Oral), the inhibition in vivo at 10 mg/kg was 33%, the inhibition in vivo at 30 mg/kg amounted to 0% and the inhibition in vivo at 100 mg/kg worked out at 9%.

On to `CCCCOC(=O)c1nc2nc3cc(OC)c(OC(C)=O)cc3cc2c(=O)[nH]1` [COO-(n-C4 H9)/H/H/CH3 COO/OCH3/H], for which, in data set [1] (Rattus norvegicus, iv, I.V.), the inhibition in vivo at 3 mg/kg was found to be 100%. In addition, the inhibition in vivo at 10 mg/kg in data set [1] (Rattus norvegicus, Oral) amounted to 36%.

Turning to `CCOC(=O)c1nc2nc3ccc(F)cc3cc2c(=O)[nH]1` [COOC2 H5/H/H/F/H/H, Ethyl 7-fluoropyrimido[4,5-b]quinolin-4(3H)-one-2-carboxylate], the inhibition in vivo at 0.03 mg/kg in data set [1] (setting [4]) worked out at 0%. In addition, in data set [1] (Rattus norvegicus, iv, I.V.), the inhibition in vivo at 1 mg/kg is 90% and the inhibition in vivo at 3 mg/kg was determined as 82%. Besides, the inhibition in vivo at 30 mg/kg in data set [1] (Rattus norvegicus, Oral) came out at 17%.

Take `Cc1nc2cc3ccccc3cc2c(=O)[nH]1` [2-methylbenzo[g]quinazolin-4(3H)-one, reference compound]: in data set [1] (rat, in vivo), the “activity in the PCA test” value is on record as “little or no activity”.

Regarding `Cn1c(=O)c2[nH]cnc2n(C)c1=O` [theophylline], the “bronchodilator activity” value in the data set on bronchi is “generally less potent than the sympathomimetic amines such as isoproterenol and solbutamol, and are ineffective in aerosol administration”.

The record behind these values is patent US4044134A, “Fused pyrimidin-4(3H)-ones as antiallergy agents” (Pfizer Inc., priority 1976, dated 1977).
